Experimental data from patent US5510353A, “Certain aminoguanidine compounds, pharmaceutical compositions containing them and their use in treating gastrointestinal motility disorders and disorders associated with cephalic pain” (Sandoz Ltd., priority 1991, dated 1996).

Key:
[1] = system: isolated guinea-pig ileum; assay: Peristaltic reflex in the isolated guinea-pig ileum; format: cell-based; details: Cavia porcellus, 0.25 h, 15 min contact, read-out: pEC50 value, stimulatory effect on the peristaltic activity (converted)
Description: Furthermore, the stimulatory effect on gastrointestinal motility of compounds of the invention is also indicated e.g. by their effects on the peristaltic reflex in the isolated guinea-pig ileum.
Male guinea-pigs, 200-400 g are stunned and bled. Segments of terminal ileum, 4-5 cm long, are removed and suspended as described by Trendelenburg in Arch. Exp. Path. Pharmakol., 81, 55-129 (1917), in a 20 ml organ bath under an initial load of 1 g. The tissue is bathed with a modified Krebs solution (NaCl 118.6; CaCl2 2.7; KCl 4.7; KH2 PO4 1.2; MgSO4 0.1; NaHCO3 25.0; and glucose 5.6 mM), maintained at 37° C. and bubbled with 5% CO2 in oxygen. Peristalsis is elicited for 30 s by increasing the intraluminal pressure from zero by 1 to 4 cm H2 O. Measurements are made of longitudinal muscle responses by using an isotonic force-displacement transducer and of circular muscle activity by employing a pressure transducer. The area under the curve (AUG) of peristaltic contractions is determined and concentration response curves are established by plotting the AUC representing the circular and longitudinal muscle activity. Each preparation is used as its own control, taking the peristaltic activity before the administration of the compounds to be tested as 100%. Compounds to be tested are added to the serosal side and are left in contact with the tissue for 15 min. In this test compounds of the invention have a stimulatory effect on the peristaltic activity at concentrations of the order of from about 10^-10 M to 10^-7 M.

[2] = system: small intestine of Beagle dogs; assay: Myoelectric activity of the small intestine in Beagle dogs (implanted electrodes); format: in vivo; details: Canis lupus familiaris, sc, read-out: threshold dose for stimulating myoelectric activity
Description: Monopolar electrodes are implanted on the serosal side of the gut wall along the small intestine of Beagle dogs. From these electrodes, signals are fed into a preamplifier and filtered for the registration of low and high frequency potentials, in order to separate slow waves from spikes. The number of spike bursts occuring in 2 min. periods are determined. From this the following data are extracted: duration of phase I--III, interval between 2 consecutive phase III blocks, and propagation velocity. One or two cycles are recorded prior to drug administration which is done subcutaneously 10-15 min after a Phase III has passed the most distal electrodes. Control experiments are performed routinely by means of solvent administration. In fed dogs, the number of spikes per 30 min. is determined additionally. In this test the compounds of the invention stimulate myoelectric activity at dosages of the order of from about 0.001 to 10 mg/kg s.c.

5-HT1D receptor = assay: Contraction of pig anterior cerebral artery segments (5-HT1D mediated); format: cell-based; details: vascular contraction, ketanserin 10^-7 M present
Description: Anterior cerebral arteries are excised from pig brains obtained from the local slaughterhouse. Circular segments of 3-4 mm length are mounted between two L-shaped metal prongs and placed in temperature-controlled (37° C.) organ baths filled with Krebs solution that is continuously gassed with 5% CO2 in oxygen. Agonist-induced vascular contractions are measured isometrically. In order to measure only 5-HT1D receptor mediated effects, ketanserin (10^-7 M), which prevents contractions via 5-HT2 receptors, is added to the bath solution. Compounds of the invention induce vascular contractions at a concentration of from 10^-10 to 10^-5 M, particularly 10^-9 to 10^-7 M. In this test, it has been determined that compound of Example 63 has a pD2 value of 9.0.

5HT-1D receptors = assay: Binding affinity to 5HT-1D receptors (Waeber et al.); details: 5HT-1D receptor binding
From the text: Compounds of the invention also have an agonist effect on 5HT-1D receptors. Their binding affinity to 5HT-1D receptors has been determined e.g. according to the method disclosed by C. Waeber et al., Naunyn-Schmiedeberg,s Arch. Pharmacol., 337, 595-601 (1988).

5-HT4 receptors = target: T1, 5-HT4 receptors (Cavia porcellus, UniProt O70528); assay: Antagonism of 5-HT-induced contraction, longitudinal muscle strip of guinea pig ileum (5-HT4); format: cell-based; details: methysergide 0.1 μM present, read-out: pA2 value (converted)
T1 construct: The isolated longitudinal muscle of the guinea pig ileum with its adhering myenteric plexus; from tissue; host or cells: guinea pig ileum longitudinal muscle strip with adhering myenteric plexus
From the text: The isolated longitudinal muscle of the guinea pig ileum with its adhering myenteric plexus is a well established model which permits investigations of the mechanism of action of various neurotransmitters.
Male guinea pigs (200-400 g) are killed by a blow on the head and exsanguinated. A length of small intestine is removed about 2 cm from the ileo-caecal valve. The ileum is stretched over a glass rod and the mesentery is carefully removed. By strocking tangentially away from the mesenteric attachment with a wad of cotton wool, the longitudinal muscle layer is separated and stripped from the underlying circular muscle. Longitudinal muscle strips, 3-4cm length, are mounted in a 10 ml organ bath containing Tyrode solution at 37° C. and bubbled with a 5% carbon dioxide in oxygen. The Tyrode solution is of the following composition (mmol/1): NaCl 137.0; CaCl2 1.8; KCl 2.7; MgCl2 1.05; NaHCO3 11.9; NaHPO4 0.4; glucose 5.6; and methysergide 0.1 μM. The strips are maintained under a resting tension of 500 mg. Contractions are recorded with an isotonic pendulum lever. After equilibration for 30 min a set concentration of carbachol is applied in 10 min intervals until a consistent reaction is achieved.
Non-cumulative concentration-response curves for 5-HT are established by adding increasing concentrations of the agonist to the organ bath at intervals of at least 15 min. […] Each concentration is left in contact with the tissue for 1 min. Each strip is only used to record two concentration-response curves; the first for 5-HT alone and the second for 5-HT in the presence of a set concentration of antagonist, each strip thus serving as its own control. Antagonists are allowed to preequilibrate for at least 10 min prior to addition of 5-HT. The contractions expressed as percentage of the maximal response to 5-HT obtained from several preparations are plotted as mean values in order to obtain log-concentration-response curves. Inhibition constants are expressed in the form of pA2 values which are graphically determined according to conventional methods (Arunlakshana et al, 1959, McKay 1978). […]

T1 sequence (O70528 whole entry): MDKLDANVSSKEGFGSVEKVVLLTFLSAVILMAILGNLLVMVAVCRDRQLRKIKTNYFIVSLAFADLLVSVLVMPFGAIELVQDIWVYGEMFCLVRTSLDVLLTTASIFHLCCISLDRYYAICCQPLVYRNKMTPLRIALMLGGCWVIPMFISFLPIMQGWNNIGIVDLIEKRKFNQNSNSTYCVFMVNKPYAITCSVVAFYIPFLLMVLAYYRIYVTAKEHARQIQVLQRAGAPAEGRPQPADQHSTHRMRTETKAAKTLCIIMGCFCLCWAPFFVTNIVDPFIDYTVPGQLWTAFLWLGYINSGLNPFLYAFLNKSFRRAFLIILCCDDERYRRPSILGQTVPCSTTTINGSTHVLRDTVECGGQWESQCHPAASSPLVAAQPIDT

What does the source list for `COc1cc(N)c(Cl)cc1C(=O)NC1CCN(CCCOc2ccc(F)cc2)CC1OC` (stereo not shown) [Cisapride, reference compound]?
EC50 [1]: > 100 nM; minimal effective dose [2]: 0.3 mg/kg

How did the EC50 [1] turn out when `CCCCCNC(=N)NN=Cc1c[nH]c2ccc(OC)cc12` [Example 13] was run?
The EC50 was 1 nM.

What about the minimal effective dose [2] of the same molecule?
The minimal effective dose was 0.03 mg/kg.

What does the source list for `CCCCCNC(=N)NN=Cc1c[nH]c2ccc(C(N)=O)cc12` [Example 63]?
pD2 value (5-HT1D receptor): 9.0; pKD value (5HT-1D receptors): 8.55

`CCCCCNC(=N)NN=Cc1c[nH]c2c(C)cc(O)cc12` [Example 89] was tested. Which Kb (5-HT4 receptors) did it give?
Its Kb is 7.94 nM.

How did the Kb (5-HT4 receptors) turn out when `CCCCCNC(=N)NN=Cc1cn(CC)c2ccc(O)cc12` [Example 90] was run?
Its Kb is 10 nM.

Which Kb (5-HT4 receptors) does the source give for `CCCCCN(C)C(=N)NN=Cc1c[nH]c2c(C)cc(O)cc12` [Example 97] here?
The Kb was 5.01 nM.

How did the EC50 [1] turn out when `CCN(CC)CCNC(=O)c1cc(Cl)c(N)cc1OC` [metoclopramide] was run?
The EC50 was 2000 nM.
